Laboratory results as given in patent US9469650B2, “Melampomagnolide B derivatives” (BOARD OF TRUSTEES OF THE UNIVERSITY OF ARKANSAS, priority 2013, dated 2016).
Like-named read-outs stand apart in the source and are kept apart here.

Legend:
IGROV1 = assay: panel of 60 human tumor cell lines, growth inhibition (Ovarian Cancer); conditions: Homo sapiens; for GI50: IGROV-1; for CC50: IGROV-1, read-out: LC50; for IC (TGI): IGROV-1, read-out: TGI
MDA-MB-231/ATCC = assay: panel of 60 human tumor cell lines, growth inhibition (Breast Cancer); conditions: Homo sapiens; for GI50: MDA-MB-231; for CC50: MDA-MB-231, read-out: LC50; for IC (TGI): MDA-MB-231, read-out: TGI
NCI-H226 = assay: panel of 60 human tumor cell lines, growth inhibition (Non-Small Cell Lung Cancer); conditions: Homo sapiens; for GI50: NCI-H226; for CC50: NCI-H226, read-out: LC50
SF-268 = assay: panel of 60 human tumor cell lines, growth inhibition (CNS Cancer); conditions: Homo sapiens; for GI50: SF-268; for CC50: SF-268, read-out: LC50; for IC (TGI): SF-268, read-out: TGI
HCT-15 = assay: panel of 60 human tumor cell lines, growth inhibition (Colon Cancer); conditions: Homo sapiens; for GI50: HCT-15; for CC50: HCT-15, read-out: LC50; for IC (TGI): HCT-15, read-out: TGI
M14 = assay: panel of 60 human tumor cell lines, growth inhibition (Melanoma); conditions: Homo sapiens; for GI50: M14; for CC50: M14, read-out: LC50; for IC (TGI): M14, read-out: TGI
SN12C = assay: panel of 60 human tumor cell lines, growth inhibition (Renal Cancer); conditions: Homo sapiens; for CC50: read-out: LC50; for IC (TGI): read-out: TGI
NCI-H460 = assay: panel of 60 human tumor cell lines, growth inhibition (Non-Small Cell Lung Cancer); conditions: Homo sapiens; for GI50: NCI-H460; for CC50: NCI-H460, read-out: LC50; for IC (TGI): NCI-H460, read-out: TGI
SK-MEL-2 = assay: panel of 60 human tumor cell lines, growth inhibition (Melanoma); conditions: Homo sapiens; for GI50: SK-MEL-2; for CC50: SK-MEL-2, read-out: LC50; for IC (TGI): SK-MEL-2, read-out: TGI
MDA-MB-435 = assay: as above; conditions: Homo sapiens; for GI50: MDA-MB-435; for CC50: MDA-MB-435, read-out: LC50; for IC (TGI): MDA-MB-435, read-out: TGI
BT-549 = assay: panel of 60 human tumor cell lines, growth inhibition (Breast Cancer); conditions: Homo sapiens; for GI50: BT-549; for CC50: BT-549, read-out: LC50; for IC (TGI): BT-549, read-out: TGI
SK-MEL-5 = assay: panel of 60 human tumor cell lines, growth inhibition (Melanoma); conditions: Homo sapiens; for GI50: SK-MEL-5; for CC50: SK-MEL-5, read-out: LC50; for IC (TGI): SK-MEL-5, read-out: TGI
MCF7 = assay: panel of 60 human tumor cell lines, growth inhibition (Breast Cancer); conditions: Homo sapiens; for GI50: MCF7, MCF7; for CC50: MCF7, read-out: LC50; for IC (TGI): MCF7, read-out: TGI
OVCAR-8 = assay: panel of 60 human tumor cell lines, growth inhibition (Ovarian Cancer); conditions: Homo sapiens; for GI50: OVCAR-8; for CC50: OVCAR-8, read-out: LC50; for IC (TGI): OVCAR-8, read-out: TGI
A549/ATCC = assay: panel of 60 human tumor cell lines, growth inhibition (Non-Small Cell Lung Cancer); conditions: Homo sapiens; for CC50: A549, read-out: LC50
TK-10 = assay: panel of 60 human tumor cell lines, growth inhibition (Renal Cancer); conditions: Homo sapiens; for GI50: TK-10, TK-10; for CC50: TK-10, read-out: LC50; for IC (TGI): TK-10, read-out: TGI
ACHN = assay: as above; conditions: Homo sapiens; for CC50: read-out: LC50; for IC (TGI): read-out: TGI
HS 578T = assay: panel of 60 human tumor cell lines, growth inhibition (Breast Cancer); conditions: Homo sapiens, Hs-578T; for CC50: read-out: LC50; for IC (TGI): read-out: TGI

`C=C1C(=O)O[C@H]2[C@H]1CC/C(COC(=O)OCCCN1CCCCC1)=C\CC[C@@]1(C)O[C@@H]21` [JVM 2-26] showed a GI50 (IGROV1) of 13.2 µM, a CC50 (IGROV1) of 76.3 µM and an IC (TGI) (IGROV1) of 31.7 µM. The “Percent Growth” value (HL-60(TB); Log10 Concentration −4.0) was −50%, the “Percent Growth” value (HL-60(TB); Log10 Concentration −5.0) was −10% and the “Percent Growth” value (HL-60(TB); Log10 Concentration −6.0) was 73%. The “Percent Growth” value (HL-60(TB); Log10 Concentration −7.0) was 64%, the “Percent Growth” value (HL-60(TB); Log10 Concentration −8.0) was 93% and the GI50 (MDA-MB-231/ATCC) was 3.73 µM. The CC50 (MDA-MB-231/ATCC) was 49.4 µM, the IC (TGI) (MDA-MB-231/ATCC) was 16.2 µM and the GI50 (NCI-H226) was 4.43 µM. It also gave a CC50 (NCI-H226) of 79.8 µM, a GI50 (SF-268) of 6.14 µM and a CC50 (SF-268) of 53.2 µM. It also gave an IC (TGI) (SF-268) of 20.6 µM, a GI50 (HCT-15) of 2.39 µM and a CC50 (HCT-15) of 37 µM. For the same molecule, the IC (TGI) (HCT-15) was 10.6 µM, the GI50 (M14) was 3.85 µM and the CC50 (M14) was 41.1 µM. The IC (TGI) (M14) was 15.5 µM, the GI50 (SN12C) was 8.41 µM and the CC50 (SN12C) was 55.2 µM. It also gave an IC (TGI) (SN12C) of 22.7 µM, a GI50 (NCI-H460) of 16.7 µM and a CC50 (NCI-H460) of 77.5 µM. The IC (TGI) (NCI-H460) was 36 µM, the GI50 (SK-MEL-2) was 11.2 µM and the CC50 (SK-MEL-2) was 55.8 µM. The IC (TGI) (SK-MEL-2) was 25.1 µM, the GI50 (MDA-MB-435) was 2.99 µM and the CC50 (MDA-MB-435) was 38.5 µM. For the same molecule, the IC (TGI) (MDA-MB-435) was 13.2 µM, the GI50 (BT-549) was 3.12 µM and the CC50 (BT-549) was 38.7 µM. For the same molecule, the IC (TGI) (BT-549) was 15 µM, the GI50 (SK-MEL-5) was 10.6 µM and the CC50 (SK-MEL-5) was 47.6 µM. For the same molecule, the IC (TGI) (SK-MEL-5) was 22.5 µM, the GI50 (MCF7) was 2.3 µM and the CC50 (MCF7) was 50.8 µM. For the same molecule, the IC (TGI) (MCF7) was 10.7 µM, the GI50 (OVCAR-8) was 10.3 µM and the CC50 (OVCAR-8) was 53.3 µM. For the same molecule, the IC (TGI) (OVCAR-8) was 13.5 µM, the CC50 (A549/ATCC) was 67.2 µM and the GI50 (TK-10) was 2.03 µM. It also gave a CC50 (TK-10) of 25.5 µM, an IC (TGI) (TK-10) of 6.82 µM and a GI50 (ACHN) of 2.14 µM. The CC50 (ACHN) was 31.5 µM, the IC (TGI) (ACHN) was 8.06 µM and the GI50 (HS 578T) was 4.96 µM. For the same molecule, the CC50 (HS 578T) was greater than 100 µM and the IC (TGI) (HS 578T) was 26.8 µM.
For `C=C1C(=O)O[C@H]2[C@H]1CC/C(COC(=O)NCCCCCCO)=C\CC[C@@]1(C)O[C@@H]21` [JVM 2-31], the GI50 (IGROV1) was 17.4 µM, the CC50 (IGROV1) was 80.7 µM and the IC (TGI) (IGROV1) was 37.5 µM. For the same molecule, the “Percent Growth” value (HL-60(TB); Log10 Concentration −4.0) was −49%, the “Percent Growth” value (HL-60(TB); Log10 Concentration −5.0) was 9% and the “Percent Growth” value (HL-60(TB); Log10 Concentration −6.0) was 103%. The “Percent Growth” value (HL-60(TB); Log10 Concentration −7.0) was 107%, the “Percent Growth” value (HL-60(TB); Log10 Concentration −8.0) was 115% and the GI50 (MDA-MB-231/ATCC) was 8.01 µM. It also gave a CC50 (MDA-MB-231/ATCC) of 57.9 µM, an IC (TGI) (MDA-MB-231/ATCC) of 20.3 µM and a GI50 (NCI-H226) of 4.92 µM. For the same molecule, the CC50 (NCI-H226) was 87.2 µM, the IC (TGI) (NCI-H226; NCI-H226, read-out: TGI) was 23.9 µM and the GI50 (SF-268) was 8.59 µM. It also gave a CC50 (SF-268) of 73 µM, an IC (TGI) (SF-268) of 26 µM and a GI50 (HCT-15) of 2.56 µM. It also gave a CC50 (HCT-15) of 49.5 µM, an IC (TGI) (HCT-15) of 12.1 µM and a GI50 (M14) of 4.5 µM. For the same molecule, the CC50 (M14) was 46.7 µM, the IC (TGI) (M14) was 17.4 µM and the GI50 (SN12C) was 10.4 µM. For the same molecule, the CC50 (SN12C) was 69.7 µM, the IC (TGI) (SN12C) was 27 µM and the GI50 (NCI-H460) was 20.3 µM. It also gave a CC50 (NCI-H460) greater than 100 µM, an IC (TGI) (NCI-H460) of 51.2 µM and a GI50 (SK-MEL-2) of 14.4 µM. It also gave a CC50 (SK-MEL-2) of 70.4 µM, an IC (TGI) (SK-MEL-2) of 31.9 µM and a GI50 (MDA-MB-435) of 4.45 µM. The CC50 (MDA-MB-435) was 70.9 µM, the IC (TGI) (MDA-MB-435) was 20.2 µM and the GI50 (BT-549) was 2.86 µM. The CC50 (BT-549) was 43.4 µM, the IC (TGI) (BT-549) was 17.4 µM and the GI50 (SK-MEL-5) was 6.8 µM. The CC50 (SK-MEL-5) was 54.5 µM, the IC (TGI) (SK-MEL-5) was 21.7 µM and the GI50 (MCF7; NCI five dose) was 4.92 µM. The CC50 (MCF7) was 76.3 µM, the IC (TGI) (MCF7) was 12 µM and the GI50 (OVCAR-8) was 10.2 µM. The CC50 (OVCAR-8) was 76 µM, the IC (TGI) (OVCAR-8) was 27.9 µM and the GI50 (A549/ATCC; A549) was 17 µM. For the same molecule, the CC50 (A549/ATCC) was 85.2 µM, the IC (TGI) (A549/ATCC; A549, read-out: TGI) was 38 µM and the GI50 (TK-10; NCI five dose) was 2.64 µM. The CC50 (TK-10) was 33.3 µM, the IC (TGI) (TK-10) was 9.68 µM and the GI50 (ACHN) was 3.21 µM. The CC50 (ACHN) was 49.6 µM, the IC (TGI) (ACHN) was 13.6 µM and the GI50 (HS 578T) was 3.92 µM. It also gave a CC50 (HS 578T) greater than 100 µM and an IC (TGI) (HS 578T) of 85.7 µM.
